Experiment [1] deals with LL29 cells (primary human fibroblasts derived from IPF patients), α-smooth muscle actin. As to the kind of experiment: Inhibition of fibrotic process: αSMA in TGF-β1-treated primary human fibroblasts from IPF patients (LL29 cells). Format: cell-based. The following applies: Homo sapiens, Fibroblast; for EC50: 96 h, % αSMA-positive LL29 cells, TGF-β1 20 ng/mL, 4 days; for inhibition at 10 µM: read-out: percent inhibition at 10 μM. The method, boiled down: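 Read-out is the percentage of αSMA-positive cells by high-content imaging, excluding SYTOX green-positive dead/apoptotic cells, normalized to TGF-β1-only wells on the same plate. LL29 cells were exposed for 4 days at 37 °C to 20 ng/mL TGF-β1 plus 11-point, 2-fold compound dilutions in 0.1% DMSO.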

The test system of experiment [2] is Wnt activity (Sp5-Luc reporter in SW480 colon carcinoma cells). Kind of experiment: Wnt activity screening assay (Sp5-Luc reporter gene assay). Format: cell-based, human. The following applies: Homo sapiens; for EC50: Sp5-Luc reporter, SW480 cells, 36 to 48 hours; for inhibition at 10 µM: SW480, read-out: percent inhibition at 10 μM. The method, boiled down: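 Compounds at 10 points (1:3 steps, top 10 μM, 0.1% DMSO final) were incubated 36 to 48 h at 37° C with stable Sp5-Luc SW480 reporter cells in 1% FBS medium. Luciferase luminescence was then read and expressed relative to DMSO-only cells. Four-parameter variable-slope fitting yielded EC50 values.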
In general terms: A reporter such as luciferase makes a cellular process visible.

The subject of experiment [3] is Tau phosphorylation at Ser396 (pSer396), SH-SY5Y cells. Kind of experiment: Tau phosphorylation at Ser396 (pSer396) in SH-SY5Y cells, ELISA/western blot.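 Note: cell lysates probed for reduced Tau pSer396 via ELISA (colorimetric) or western blot (chemiluminescence), both with one shared pSer396 antibody, EC50 for lowering phosphorylation.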 The following applies: Homo sapiens; SH-SY5Y cells, overnight (16-18 h); read-out: pSer396 Tau EC50. Format: cell-based, human. A general note: An ELISA detects its analyte on a solid surface through an enzyme-linked reagent.

The subject of experiment [4] is SW480 colon carcinoma cells. Kind of experiment: Cell viability assay (CellTiter-Glo) in SW480 cells.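 For all read-outs here: SW480 cells stably carrying an Sp5-luciferase TCF/LEF reporter, luminescent ATP signal as viability measure, DMSO-treated cells as control.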 The following applies: Homo sapiens; for EC50: 96 h, cell viability, SW480 cells, four days, CellTiter-Glo; for inhibition at 10 µM: SW480, read-out: percent inhibition at 10 μM. Format: cell-based, human. (In general: Cellular ATP, detected with luciferase, serves as a proxy for viable cell number.)

The target in experiment [5] is GSK3β kinase (Homo sapiens (Human), UniProt P49841). As to the kind of experiment: GSK3β kinase assay (Ser/Thr 09 peptide Z-lyte, FRET).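 Note: Coumarin/fluorescein emission ratio converted to percent phosphorylation against unphosphorylated (0%) and phosphorylated (100%) controls, 1 h compound incubation at room temperature, 11-point threefold dilutions from 10 µM, run in duplicate.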 In kind it is biochemical. The following applies: method text calls the value IC50.
GSK3β kinase, sequence (P49841 whole entry): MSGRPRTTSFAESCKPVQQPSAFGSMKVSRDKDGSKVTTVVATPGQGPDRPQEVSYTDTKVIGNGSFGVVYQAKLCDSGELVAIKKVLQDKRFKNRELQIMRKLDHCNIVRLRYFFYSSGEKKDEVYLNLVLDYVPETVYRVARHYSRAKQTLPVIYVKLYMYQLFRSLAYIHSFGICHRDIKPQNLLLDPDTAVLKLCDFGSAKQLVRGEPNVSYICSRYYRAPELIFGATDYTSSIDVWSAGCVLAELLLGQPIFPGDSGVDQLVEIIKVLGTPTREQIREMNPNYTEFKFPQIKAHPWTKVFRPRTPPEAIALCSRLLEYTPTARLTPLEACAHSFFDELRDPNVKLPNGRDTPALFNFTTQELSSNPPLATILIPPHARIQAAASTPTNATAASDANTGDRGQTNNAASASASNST
The test system of experiment [6] is IL-6. As to the kind of experiment: IL-6 inhibition in LPS-stimulated human peripheral blood mononuclear cells (HTRF). In kind it is cell-based. The following applies: Homo sapiens, PBMC; for inhibition at 10 µM: read-out: percent value in parentheses below EC50 >10; for EC50: IL-6, LPS-stimulated huPBMCs, HTRF. Put shortly: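 EC50 from a 4-parameter fit of DMSO-normalized HTRF (665/620 nm) IL-6 signal, duplicates. Compound was added to fresh human PBMCs in 1% FBS RPMI for 2 h (top 10 μM, 3-fold, 0.25% DMSO) before 22 h stimulation with LPS at 50 ng/mL, 37 °C.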

Experiment [7] has as its target DYRK1A kinase (Homo sapiens (Human), UniProt Q13627). As to the kind of experiment: DYRK1A kinase assay (Ser/Thr 18 peptide Z-lyte, FRET).
The mark [8] stands for this setting: DYRK1A kinase, method text calls the value IC50.

Like-named read-outs stand apart in the source and are kept apart here. A value given as a limit tells only on which side of the number the result lay.

As a reminder, the EC50 is the concentration that produces a half-maximal response.

For `CNC1CCN(C(=O)Nc2cc3cc(-c4nnc(C)s4)ccc3cn2)CC1` [Compound 30, N-(6-(5-Methyl-1,3,4-thiadiazol-2-yl)isoquinolin-3-yl)-4-(methylamino) piperidine-1-carboxamide], the EC50 in experiment [1] is 4110 nM; in experiment [2] it was 3310 nM; in experiment [3], 453 nM; in experiment [4], 6840 nM; in experiment [5] it was 99 nM; in experiment [6] it was greater than 10000 nM. This compound also returned a half-maximal effective concentration (EC50) in experiment [7] (setting [8]) of 27 nM. Besides, the inhibition at 10 µM in experiment [6] is 9.3%.
Turning to `Cc1nnc(-c2ccc3cnc(NC(=O)N4CCC(N(C)C)CC4)cc3c2)s1` [Compound 31, 4-(Dimethylamino)-N-(6-(5-methyl-1,3,4-thiadiazol-2-yl)isoquinolin-3-yl) piperidine-1-carboxamide], the EC50 is 3710 nM in experiment [1]; 2060 nM in experiment [2]; 386 nM in experiment [3]; 3800 nM in experiment [4]; 117 nM in experiment [5]; greater than 10000 nM in experiment [6]. Also, the midpoint of the response in experiment [7] (setting [8]), the EC50, lay at 24 nM. In addition, the inhibition at 10 µM in experiment [6] turned out to be 19.8%.
`Cc1nnc(-c2ccc3cnc(NC(=O)N4CCC(N(C)CC(F)F)CC4)cc3c2)s1` [Compound 32, 4-((2,2-Difluoroethyl)(methyl)amino)-N-(6-(5-methyl-1,3,4-thiadiazol-2-yl)isoquinolin-3-yl)piperidine-1-carboxamide]: the EC50 in experiment [1] is 771 nM; in experiment [2], greater than 10000 nM; in experiment [3], 891 nM; in experiment [4] it was greater than 10000 nM; in experiment [5], 210 nM; in experiment [6], greater than 10000 nM. In experiment [7] (setting [8]), this compound gave an EC50 of 17 nM. Moreover, the inhibition at 10 µM was found to be 30.5% in experiment [2], 8.3% in experiment [4] and 10.1% in experiment [6].
Turning to `Cc1nnc(-c2ccc3cnc(NC(=O)N4CC[C@H](N)[C@@H](F)C4)cc3c2)s1` [Compound 33, (3S,4S)-4-amino-3-fluoro-N-(6-(5-methyl-1,3,4-thiadiazol-2-yl)isoquinolin-3-yl)piperidine-1-carboxamide], the EC50 was greater than 10000 nM in experiment [1]; 3500 nM in experiment [2]; 321 nM in experiment [3]; 4630 nM in experiment [4]; 23 nM in experiment [5]; 9320 nM in experiment [6]. For the same compound, a half-maximal effect in experiment [7] (setting [8]) (EC50) was put at 9 nM. Besides, the inhibition at 10 µM in experiment [1] was found to be 49.9%.
As for `Cc1nnc(-c2ccc3cnc(NC(=O)N4CC[C@H](N(C)C)[C@@H](F)C4)cc3c2)s1` [Compound 34, (3S,4S)-4-(dimethylamino)-3-fluoro-N-(6-(5-methyl-1,3,4-thiadiazol-2-yl)isoquinolin-3-yl)piperidine-1-carboxamide], the EC50 in experiment [1] is greater than 10000 nM; in experiment [2], 3360 nM; in experiment [3], 456 nM; in experiment [4] it was 3760 nM; in experiment [5] it was 46 nM; in experiment [6] it was greater than 10000 nM. This compound also yielded an EC50 in experiment [7] (setting [8]) of 15 nM. Further, the inhibition at 10 µM in experiment [1] was determined as 48.5%; in experiment [6], 7%.
Consider `Cc1nnc(-c2ccc3cnc(NC(=O)N4CC[C@H](NC(C)C)[C@@H](F)C4)cc3c2)s1` [Compound 35, (3S,4S)-3-Fluoro-4-(isopropylamino)-N-(6-(5-methyl-1,3,4-thiadiazol-2-yl)isoquinolin-3-yl)piperidine-1-carboxamide], for which the EC50 is 1020 nM in experiment [1]; 3340 nM in experiment [2]; 543 nM in experiment [3]; 4550 nM in experiment [4]; 84 nM in experiment [5]; greater than 10000 nM in experiment [6]. In addition, in experiment [7] (setting [8]), a half-maximal response (EC50) required 26 nM. The inhibition at 10 µM in experiment [6] turned out to be 9.6%.
`Cc1nnc(-c2ccc3cnc(NC(=O)N4CCOCC4)cc3c2)s1` [Compound 36, N-(6-(5-Methyl-1,3,4-thiadiazol-2-yl)isoquinolin-3-yl)morpholine-4-carboxamide]: the EC50 in experiment [1] was 5200 nM; in experiment [2], 3740 nM; in experiment [3], 843 nM; in experiment [4] it was 5700 nM; in experiment [5], 79 nM; in experiment [6] it was greater than 10000 nM. Further, in experiment [7] (setting [8]), it took 12 nM to reach a half-maximal effect (EC50). Further, the inhibition at 10 µM in experiment [6] turned out to be 4%.
Regarding `Cc1ncc(-c2ccc3cnc(NC(=O)[C@H]4CC[C@H](N(C)C5COC5)CC4)cc3c2)o1` [Compound 37, trans-4-(methyl(oxetan-3-yl)amino)-N-(6-(2-methyloxazol-5-yl)isoquinolin-3-yl)cyclohexane-1-carboxamide], the EC50 in experiment [1] stood at 244 nM; in experiment [2], 4040 nM; in experiment [3] it was 497 nM; in experiment [4], 6890 nM; in experiment [5] it was 138 nM; in experiment [6], 1340 nM. For the same compound, a half-maximal response in experiment [7] (setting [8]) (EC50) required 7 nM.
Take `Cc1nnc(-c2ccc3cnc(NC(=O)C4CCN(CCC(F)(F)F)CC4)cc3c2)s1` [Compound 38, N-(6-(5-Methyl-1,3,4-thiadiazol-2-yl)isoquinolin-3-yl)-1-(3,3,3-trifluoropropyl)piperidine-4-carboxamide]: the EC50 in experiment [1] is 112 nM; in experiment [2] it was 743 nM; in experiment [3], 67 nM; in experiment [4], 1080 nM; in experiment [5], 9 nM; in experiment [6], greater than 10000 nM. Besides, in experiment [7] (setting [8]), the EC50 stood at 6 nM. Moreover, in experiment [6], the inhibition at 10 µM was found to be 3.2%.
As for `[2H]C1([2H])OC([2H])([2H])C([2H])([2H])N(CC(=O)Nc2cc3cc(-c4cnn(C)c4)ccc3cn2)C1([2H])[2H]` [Compound 39, N-(6-(1-Methyl-1H-pyrazol-4-yl)isoquinolin-3-yl)-2-(morpholino-d8) acetamide], the EC50 in experiment [1] is 2590 nM; in experiment [2] it was greater than 10000 nM; in experiment [3], 538 nM; in experiment [4], greater than 10000 nM; in experiment [5], 96 nM; in experiment [6], 9400 nM. The compound also returned an EC50 in experiment [7] of 15 nM. The inhibition at 10 µM in experiment [2] was determined as 36.3%; in experiment [4], 27.3%.
As for `[2H]C1([2H])OC([2H])([2H])C([2H])([2H])N(CC(=O)Nc2cc3cc(-c4cnc(C)o4)ccc3cn2)C1([2H])[2H]` [Compound 40, N-(6-(2-Methyloxazol-5-yl)isoquinolin-3-yl)-2-(morpholino-d8)acetamide], the EC50 was 3710 nM in experiment [1]; greater than 10000 nM in experiment [2]; 688 nM in experiment [3]; greater than 10000 nM in experiment [4]; 120 nM in experiment [5]; 9700 nM in experiment [6]. Further, in experiment [7], the EC50 worked out at 29 nM. The inhibition at 10 µM in experiment [2] was 29.6%; in experiment [4], 27%.
On to `[2H]C1([2H])OC([2H])([2H])C([2H])([2H])N(CC(=O)Nc2cc3cc(-c4cnc(C)s4)ccc3cn2)C1([2H])[2H]` [Compound 41, N-(6-(2-Methylthiazol-5-yl)isoquinolin-3-yl)-2-(morpholino-d8)acetamide], for which the EC50 in experiment [1] was 1220 nM; in experiment [2], greater than 10000 nM; in experiment [3] it was 869 nM; in experiment [4], greater than 10000 nM; in experiment [5] it was 203 nM; in experiment [6], greater than 10000 nM. Moreover, the midpoint of the response in experiment [7], the EC50, lay at 27 nM. Also, the inhibition at 10 µM in experiment [2] was determined as 29.7%; in experiment [4] it was 10.7%; in experiment [6], 9.4%.
Turning to `C[C@H]1CN(C)CCN1C(=O)Nc1cc2cc(-c3cnn(C)c3)ccc2cn1` [Compound 42, (S)-2,4-Dimethyl-N-(6-(1-methyl-1H-pyrazol-4-yl)isoquinolin-3-yl) piperazine-1-carboxamide], the EC50 is greater than 10000 nM in experiment [1]; greater than 10000 nM in experiment [2]; greater than 10000 nM in experiment [3]; greater than 10000 nM in experiment [4]; 4670 nM in experiment [5]; greater than 10000 nM in experiment [6]. This compound yielded an EC50 in experiment [7] (setting [8]) of 12 nM. For the same compound, the inhibition at 10 µM in experiment [1] came out at 6.4%; in experiment [2], 25.5%; in experiment [4], 26.5%; in experiment [6], 6.4%.
Turning to `Cc1ncc(-c2ccc3cnc(NC(=O)[C@H]4CC[C@H](CO)CC4)cc3c2)o1` [Compound 43, trans-4-(hydroxymethyl)-N-(6-(2-methyloxazol-5-yl)isoquinolin-3-yl)cyclohexane-1-carboxamide], the EC50 in experiment [1] is 230 nM; in experiment [2] it was 239 nM; in experiment [3], 362 nM; in experiment [4], 4980 nM; in experiment [5] it was 66 nM; in experiment [6], 1070 nM. For the same compound, in experiment [7] (setting [8]), the EC50 turned out to be 2 nM.
